The test system of assay [1] is 5×FAD mice. The assay is described as follows: Micro-computed tomography (μCT) of femurs, bone phenotype. In kind it is in vivo, mouse. The conditions noted are these: femur μCT, 6-MO female 5×FAD vs WT mice; hPTH1-34 50 μg/Kg s.c. once daily, 5 days per week from 2-MO. How it is done: Parathyroid hormone (human) was purchased from TOCRIS Bioscience (Cat #3011/1, Abingdon, United Kingdom). WT or 5×FAD mice (both male and female) were treated with PTH1-34 intermittently [once daily injection of hPTH1-34 (50 μg/Kg) or vehicle (0.9% sodium chloride) (as a control) by subcutaneous injection, starting at 2-MO, 5 days per week] as described previously. Mice were then subjected to behavioral tests and sacrificed for examinations of their bone and brain phenotypes at the indicated ages.
Femurs of WT and 5×FAD female mouse with or without PTH1-34 treatment were detached and fixed overnight in 10% formalin and stored in PBS for further characterization by microCT (μCT). The excised femurs were placed vertically in a 12-mm-diameter scanning holder and scanned using the Scanco μCT40 (Scanco Medical AG). Settings parameters are adjusted as previously described: […], 55 kVp, and 145 μA with an integration time of 200 ms. For the cortical analysis, the bone was scanned at the midshaft of the bone for a scan of 25 slices, and the threshold for cortical bone was set at 329. The 3D reconstruction was performed using all outlined slices and analyzed by μCT evaluation program (v.6.5-2; Scanco Medical). Data were obtained on bone volume (BV), total volume (TV), BV/TV, bone density, and cortical thickness for cortical bone. […]

Assay [2] has as its system primary cultured astrocytes from WT and 5×FAD pups. The experiment in a line: PTH1-34 induced signaling in primary cultured astrocytes (Western blot). In kind it is cell-based, mouse. The conditions noted are these: 100 ng/ml PTH1-34, time course. The protocol:
Total proteins from cortex, hippocampus, or cultured astrocytes were extracted using RIPA lysis buffer [50 mM Tris-HCl (pH7.5), 150 mM NaCl, 1 mM EDTA, 1% v/v NP-40, 0.1% SDS, 1% sodium deoxycholate supplemented with Protease Inhibitor Cocktail (Roche) and 1 mM PMSF] and analyzed by Western Blot. Lysates were cleared by centrifugation at 12,000 g for 15 min at 4° C. to remove debris and to obtain homogenates. Homogenates samples were resolved by SDS-PAGE (8˜15%) gels and then electroblotted onto nitrocellulose membranes (Cat #1620112, Bio-Rad Laboratories). Membranes were blocked with 5% BSA (w/v) in TBS-Tween (50 mM Tris, 150 mM NaCl, pH7.6 and 0.1% v/v Tween-20) for 1 h and then probed with indicated primary antibodies overnight in 4° C. Membranes were washed with TBST 4 times and incubated with HRP-conjugated secondary antibodies (1:5000 in TBST) at room temperature for 1 h. After washing with TBST 3 times, antibody reactivity was detected by the Enhanced Chemiluminescence (ECL) detection system (Amersham Biosciences). Band density of proteins was normalized in relation to loading control and analyzed using NIH ImageJ software. Primary anti-bodies used were as follows: IBA1 (ab178846, rabbit), p16 (ab51243, rabbit), p53 (ab131442, rabbit), and anti-beta Actin (ab8226, mouse) from Abcam (Cambridge, MA, USA); GFAP (12389, rabbit), p-CREB (Ser133) (9198S, rabbit), p-AKT(S473) (4060P, rabbit), AKT (9272S, rabbit) and GAPDH (97166S, mouse) from Cell Signaling (Danvers, MA, USA); PTH1R (PA5-77,689, rabbit) from Invitrogen (Carlsbad, CA, USA); p-ERK1/2 (sc-136521, mouse) and ERK1/2 (sc-514302, mouse) from Santa Cruz Biotechnology (Santa Cruz, CA, USA).
Astrocyte culture was performed according to the standard protocol with some modifications as described in previous literature. In brief, the cerebral cortex and hippocampus of postnatal day 3 (P3) female pups were dissected under a stereomicroscope and placed in ice-cold calcium- and magnesium-free HBSS (Hanks Balanced Salt Solution). […]

In assay [3] the test system is 5×FAD astrocytes. The assay is described as follows: RT-qPCR of cytokines and chemokines in cultured astrocytes. The following applies: cultured 5×FAD astrocytes, 100 ng/ml, 24 h. The format is cell-based, mouse. The protocol:
Total RNA was extracted from cortex, hippocampus, or cultured astrocytes using a TRizol reagent (Invitrogen, cat #15596-026, Carlsbad, CA, USA) as previously described. Purified RNA (1-5 μg) was used for cDNA synthesis with the Revert Aid First Strand cDNA Synthesis Kit (Thermo Scientific, cat #K1621, Waltham, MA, USA). The cDNA products were subjected to subsequent quantitative PCR (qPCR) using the QuantiFast SYBR Green PCR Kit (QIA-GEN, cat #204057, Hilden, Germany) with a qPCR System (StepOne Plus). Each sample was repeated at least 3 times, and the mRNA level was normalized to GAPDH using the 2^−ΔΔCt method.
Astrocyte culture was performed according to the standard protocol with some modifications as described in previous literature. In brief, the cerebral cortex and hippocampus of postnatal day 3 (P3) female pups were dissected under a stereomicroscope and placed in ice-cold calcium- and magnesium-free HBSS (Hanks Balanced Salt Solution). The tissues were digested with 2.5% trypsin-EDTA, 3 ml for each mouse, at 37° C. for 20 min with shaking slightly every 5 min. The digested tissue was blown into single-cell suspension, filtered through a […] filter mesh, pelleted at 900×g for 5 min, and resuspended in growth medium (DMEM plus 10% FBS), which was incubated at 37° C. with 5% CO2. […]
(In general: Real-time PCR tracks product formation cycle by cycle.)

Experimental findings from patent US20240299504A1, “COMPOSITIONS AND METHODS FOR TREATING ALZHEIMERS DISEASE” (priority 2023, published 2024) are described below.

As for `CC[C@H](C)[C@H](NC(=O)[C@H](CCC(=O)O)NC(=O)[C@H](CO)NC(=O)[C@@H](NC(=O)[C@@H](N)CO)C(C)C)C(=O)N[C@@H](CCC(N)=O)C(=O)N[C@@H](CC(C)C)C(=O)N[C@@H](CCSC)C(=O)N[C@@H](Cc1cnc[nH]1)C(=O)N[C@@H](CC(N)=O)C(=O)N[C@@H](CC(C)C)C(=O)NCC(=O)N[C@@H](CCCCN)C(=O)N[C@@H](Cc1cnc[nH]1)C(=O)N[C@@H](CC(C)C)C(=O)N[C@@H](CC(N)=O)C(=O)N[C@@H](CO)C(=O)N[C@@H](CCSC)C(=O)N[C@@H](CCC(=O)O)C(=O)N[C@@H](CCCN=C(N)N)C(=O)N[C@H](C(=O)N[C@@H](CCC(=O)O)C(=O)N[C@@H](Cc1c[nH]c2ccccc12)C(=O)N[C@@H](CC(C)C)C(=O)N[C@@H](CCCN=C(N)N)C(=O)N[C@@H](CCCCN)C(=O)N[C@@H](CCCCN)C(=O)N[C@@H](CC(C)C)C(=O)N[C@@H](CCC(N)=O)C(=O)N[C@@H](CC(=O)O)C(=O)N[C@H](C(=O)N[C@@H](Cc1cnc[nH]1)C(=O)N[C@@H](CC(N)=O)C(=O)N[C@@H](Cc1ccccc1)C(=O)O)C(C)C)C(C)C` [PTH1-34], the “trabecular bone mass (Tb. BV/TV)” value in assay [1] is listed as “more trabecular bone mass was induced in 5×FAD mice than that in WT mice”. In addition, in assay [2], the p-AKT protein level result is recorded as “little effect”, the p-CREB protein level entry is “increases p-CREB” and the p-ERK protein level result was “little effect”. The “expression of cytokines or chemokines (TNF-α, TGF-β1, CCL5, GM-CSF, RANK)” value in assay [3] is recorded as “Nearly all these factors (except GM CSF) were reduced”.
